“Also recorded” adds a separate entry of the source. Read-outs that look alike come from different tables or passages of the source.
Experiments:
[1] = cited from earlier work
[2] = system: cancer; settings: humans; cited from earlier work
[3] = system: serum TNF in C57BL mice; test: In vivo serum TNF in mice with or without antibiotic pre-treatment; set-up: species or system mouse
Method: To test the hypothesis that low concentrations of LPS synergise with DMXAA for in vivo TNF production, mice were treated orally with antibiotics for […] and then treated with 25 mg/kg DMXAA. TNF levels were measured […]. C57BL mice were either untreated, or treated for 4 days prior to DMXAA with a mixture of antibiotics (cephalocin 2 g/l and neomycin 2 g/l in the drinking water). Mice received a single i.p. dose of DMXAA (25 mg/kg) and blood was collected by cardiac puncture of halothane-anaesthetised mice after 3 hours. Blood from each mouse was transferred to individual microcentrifuge tubes and allowed to clot overnight on ice before centrifugation at 2000×g for 20 minutes at 4° C. If clotting was not complete the sample was allowed to stand on ice for a further 2 hours, after which it was re-centrifuged. Serum was drawn off the top of the blood samples and stored at −20° C. until assay of TNF content. […] ELISA (enzyme-linked immunosorbent assay) plates were made using the OptEIA Human TNF-alpha-Set (Pharmingen, San Diego, Calif., USA). TNF standards and samples were added to the ELISA plates and the assays were carried out according to the manufacturer's directions.

[4] = system: TNF production in murine leucocytes; test: TNF production in cultured murine leucocytes in vitro (8 h, ELISA); format: cell-based, mouse
Method: The effect of DMXAA on cultured murine leucocytes has also been investigated using LPS as a control. TNF was measured by enzyme-linked immunosorbent assay after 8 h.
Blood samples for extraction of leucocytes were taken by cardiac puncture of halothane-anaesthetised mice into 1-ml syringes containing ACD-A anticoagulant (0.1 ml). All extraction operations were carried out at 7° C. to prevent clotting. Samples were pooled and unsupplemented α-MEM was added to 30 ml and a 10-ml layer of Ficoll-Paque PLUS™ was slowly added to the bottom of the tubes. After centrifugation at 300×g for 30 min the upper layer was removed and the leucocyte layer was carefully drawn off into a fresh 50-ml centrifuge tube. The volume was adjusted to 50 ml with unsupplemented growth medium, the cells were centrifuged at 300×g, and the leucocytes were resuspended at 10^7 cells/ml in α-MEM supplemented with foetal bovine serum (10% v/v), streptomycin sulphate (100 μg/ml) and penicillin-G (100 units/ml).
Cells were added either to 24 well plates (1 ml/well; Nunc, Kamstrup, Roskilde, Denmark) or to 100 mm Petri dishes (10 ml/plate) and incubated in 5% CO2/air at 37° C. overnight. Agents (made up at twice the final concentration in growth medium) were added and plates were further incubated for 8 hours. After the appropriate incubation period of HPBL with drug in 24-well plates, supernatants were removed and either assayed immediately or stored at −20° C.
TNF standards were prepared by making serial dilutions of the TNF stock solution in supplemented culture media (concentration range 10-10,000 pg/ml). ELISA (enzyme-linked immunosorbent assay) plates were made using the OptEIA Human TNF-alpha-Set (Pharmingen, San Diego, Calif., USA). TNF standards and samples were added to the ELISA plates and the assays were carried out according to the manufacturer's directions.

[5] = system: TNF production in human peripheral blood leucocytes (HPBL); format: cell-based
Method: Partially purified buffy coats were purchased from Auckland Blood Centre and divided into 15-ml, aliquots in 50-ml centrifuge tubes (2070 Conical Tubes, Becton Dickinson Labware, N.J., USA). HPBL in tissue culture dishes (10 ml; 10^7 cells/ml) were incubated overnight in α-MEM culture medium supplemented with FCS (10% v/v), streptomycin sulphate (100 μg/ml) and penicillin-G (100 units/ml). All extraction operations were carried out at 7° C. to prevent clotting. Unsupplemented α-MEM medium was added to 30 ml and a 10-ml layer of Ficoll-Paque PLUS was slowly added to the bottom of the tubes. After centrifugation at 300 g for 30 min the upper layer was removed and the HPBL layer was carefully drawn off into a fresh 50-ml centrifuge tube. The volume was adjusted to 50 ml, the cells were centrifuged at 300 g, and HPBL were resuspended in supplemented α-MEM medium and added (1 ml/well) to 24 well plates (Nunc, Kamstrup, Roskilde, Denmark). Agents (made up at twice the final concentration) were added and plates were incubated for the appropriate times in 5% CO2air at 37° C. overnight. DMXAA sodium salt (this laboratory) was dissolved in medium and protected from light FAA (National Cancer Institute, USA) was dissolved in 5% (w/v) sodium bicarbonate and diluted with medium. Interleukin-laipha (R&D Systems, USA), okadaic acid, LPS and deacylated LPS (Sigma Chemical Co., USA) were dissolved in α-MEM, filter-sterilised and used immediately. The MEM-18 mouse anti-human CD14 IgG antibody was obtained from Sanbio bv, am Uden, Netherlands, and was freed from azide before use by ultrafiltration.
After the appropriate incubation period of HPBL with drug, supernatants were either used immediately or stored at −20° C. TNF standards were prepared by making serial dilutions of the TNF stock solution in supplemented culture media (concentration range 10-10,000 pg/ml). ELISA plates were made using the OptEIA Human TNF-alpha Set (Pharmingen, San Diego, Calif., USA). TNF standards and samples were added to the ELISA plates and the assays were carried out according to the makers' directions.

[6] = system: murine tumours; settings: cited from earlier work

Cc1ccc2c(=O)c3cccc(CC(=O)O)c3oc2c1C [DMXAA, 5,6-dimethylxanthenone-4-acetic acid]
water solubility [1]: highly water soluble
clinical anti-cancer activity [2]: marginal clinical anti-cancer activity
serum TNF ([3]; DMXAA 25 mg/kg i.p. following antibiotic treatment, versus mice not receiving antibiotics (FIG. 8)): increased serum TNF but the increase was significantly smaller (p<0.001)
serum TNF concentrations ([3]; DMXAA 25 mg/kg single i.p. dose, mice not receiving antibiotics (FIG. 8)): substantially increased serum TNF concentrations
TNF production ([4]; DMXAA (800 μg/ml) co-incubated with anti-CD14 antibody (10 μl/well), murine leucocytes (FIG. 7)): high level of TNF production that was even greater than that caused by LPS
TNF production ([4]; DMXAA (800 μg/ml) coincubated with dLPS (500 μg/ml), murine leucocytes (FIG. 7)): significant (p<0.001) elevation of TNF production
TNF production ([4]; DMXAA alone (800 μg/ml), murine leucocytes, 8 h (FIG. 7)): did not significantly increase TNF production
TNF production [5]: large increase in TNF production; also recorded: induced a higher degree of TNF production
induction of TNF by low concentrations of LPS ([5]; DMXAA added to LPS, peripheral blood monocytes): unexpectedly stimulated
induction of TNF by antibody (MEM-18) to CD14 ([5]; DMXAA added to anti-CD14 antibody, peripheral blood monocytes): unexpectedly stimulated
TNF induction ([5]; DMXAA alone, 800 μg/ml, HPBL): no substantial induction of TNF; also recorded: no substantial effect
TNF induction ([5]; DMXAA alone, cultured HPBL, concentration not given): little effect on TNF induction
increase in induction of TNF compared to IL-1 alone ([5]; DMXAA coadministered with IL-1, HPBL (FIG. 4)): up to 56 fold
antitumour activity [6]: significant antitumour activity

C=C1[C@@H](O)[C@@H]2O[C@]3(CC[C@H](/C=C/[C@@H](C)[C@@H]4CC(C)=C[C@@]5(O[C@H](C[C@@](C)(O)C(=O)O)CC[C@H]5O)O4)O3)CC[C@H]2O[C@@H]1[C@@H](O)C[C@H](C)[C@H]1O[C@@]2(CCCCO2)CC[C@H]1C [OA, okadaic acid, reference compound]
TNF synthesis ([5]; OA alone at concentrations higher than 20 ng/ml, HPBL): induced TNF synthesis
TNF induction ([5]; OA alone at concentrations up to 20 ng/ml, HPBL): no substantial induction of TNF

CCCCCCCCCCCCCC(=O)O[C@@H]1[C@@H](C)[C@@]2(O)[C@@H](C=C(CO)C[C@]3(O)C(=O)C(C)=C[C@@H]23)[C@@H]2C(C)(C)[C@]12OC(C)=O [PMA, phorbol-12-myristate-13-acetate, reference compound]
TNF synthesis ([5]; PMA alone at concentrations higher than 20 ng/ml, HPBL): induced TNF synthesis
TNF induction ([5]; PMA alone at concentrations up to 20 ng/ml, HPBL): no substantial induction of TNF

B1: IL-1: interleukin-1 alpha, inflammatory cytokine (R&D Systems) (protein, UniProt P01583 113-271, looked up)
Interleukin-1 alpha: SAPFSFLSNVKYNFMRIIKYEFILNDALNQSIIRANDQYLTAAALHNLDEAVKFDMGAYKSSKDDAKITVILRISKTQLYVTAQDEDQPVLLKEMPEIPKTITGSETNLLFFWETHGTKNYFTSVAHPNLFIATKQDYWVCLAGGPPSITDFQILENQA
TNF induction ([5]; IL-1 alone, HPBL (FIG. 4)): capable of inducing TNF

— patent publication US7510830B2, “Cancer treatment by combination therapy” (Cancer Research Technology Limited, priority 2000, dated 2009)
